Reference: publication PMC6277434, “Discovery of a potent HMG-CoA reductase degrader that eliminates statin-induced reductase accumulation and lowers cholesterol” (Nature Communications, 2018)

Key:
HMGCR [1] = target: T1, HMGCR (Cricetulus griseus, UniProt P00347); assay: HMGCR ubiquitination assay in CHO-7 cells; format: cell-based, Chinese hamster
T1 construct: endogenous in cells; host or cells: CHO-7, CHG, SRD-13A, SRD-15
T1 sequence (P00347 1-887): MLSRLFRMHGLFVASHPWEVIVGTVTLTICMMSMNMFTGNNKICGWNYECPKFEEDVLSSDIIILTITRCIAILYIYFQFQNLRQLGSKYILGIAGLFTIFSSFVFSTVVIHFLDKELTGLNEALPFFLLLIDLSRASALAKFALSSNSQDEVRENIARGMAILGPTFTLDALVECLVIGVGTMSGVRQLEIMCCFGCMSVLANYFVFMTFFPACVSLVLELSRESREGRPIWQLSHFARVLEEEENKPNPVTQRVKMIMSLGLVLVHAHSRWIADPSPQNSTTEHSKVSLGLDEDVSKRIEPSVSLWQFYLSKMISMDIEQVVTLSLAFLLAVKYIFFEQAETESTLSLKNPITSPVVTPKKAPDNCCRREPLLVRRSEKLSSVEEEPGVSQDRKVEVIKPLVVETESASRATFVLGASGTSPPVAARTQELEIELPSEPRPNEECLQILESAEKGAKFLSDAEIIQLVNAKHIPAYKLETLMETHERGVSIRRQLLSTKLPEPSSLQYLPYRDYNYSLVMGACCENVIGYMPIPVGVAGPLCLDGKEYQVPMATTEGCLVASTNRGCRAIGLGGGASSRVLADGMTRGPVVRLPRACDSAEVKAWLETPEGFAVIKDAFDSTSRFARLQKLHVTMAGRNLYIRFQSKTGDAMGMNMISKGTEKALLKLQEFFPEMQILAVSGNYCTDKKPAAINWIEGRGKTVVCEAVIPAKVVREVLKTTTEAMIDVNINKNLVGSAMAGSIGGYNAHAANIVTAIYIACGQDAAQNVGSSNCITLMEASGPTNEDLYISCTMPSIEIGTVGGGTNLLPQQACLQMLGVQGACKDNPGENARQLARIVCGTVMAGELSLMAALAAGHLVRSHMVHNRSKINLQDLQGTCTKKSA
Method: To detect endogenous HMGCR ubiquitination, CHO-7 cells were treated as described in figure legends. Two 10-cm dishes of cells were harvested and lysed in 600 μl of immunoprecipitation buffer (1× PBS, 1% Triton X-100, 5 mM EDTA, 5 mM EGTA) supplemented with protease inhibitor cocktail, 0.1 mM Leupeptin, 10 μM MG-132, and 10mM N-ethylmaleimide. Lysates were pre-cleared with 3 μg of normal rabbit IgG (D110502, Sangon) and 40 μl of protein A/G plus-agarose (sc-2003, Santa Cruz Biotechnology) for 1 h at 4 °C, followed by immunoprecipitation with 10 μg of rabbit polyclonal anti-HMGCR and 100 μl of protein A/G plus-agarose overnight at 4 °C. After washing with immunoprecipitation buffer containing protease inhibitor cocktail for three times, immunoprecipitates were eluted with 2× loading buffer (75 mM Tris-HCl, pH 6.8, 50 mM NaCl, 6% SDS, 15% glycerol, and 0.02% bromophenol blue) at 95 °C for 10 min. Supernatants were then mixed with equal volume of membrane protein solubilization buffer and incubated at 37 °C for 30 min. Samples were finally subjected to immunoblotting as described above.
To assay for the ubiquitination of overexpressed HMGCR protein, cells were first transfected with indicated plasmids. A similar protocol was employed except that lysates were immunoprecipitated with 40 μl of anti-Flag M2 affinity gel (A2220, Sigma-Aldrich).

HMGCR [2] = target: T1, HMGCR; assay: Immunoblotting of HMGCR protein in SRD-13A (Scap-deficient CHO-7) cells; format: cell-based, Chinese hamster; conditions: for HMGCR protein level, mean: SRD-13A, 16 h
Method: CHO-7 (Chinese hamster ovary cell, a clone of CHO-K1 cell line selected for growth in LPDS) and Huh7 (a human hepatocellular carcinoma cell line), SRD-13A (a Scap-deficient CHO-7 cell line) and SRD-15 (an Insig-1 and Insig-2-deficient CHO-7 cell line) were generous gifts from Russell Debose-Boyd at UT Southwestern Medical Center, USA. All cells were grown in a monolayer at 37 °C with 5% CO2. Huh7 cells were maintained in medium A supplemented with 10% FBS. CHO-7 and SRD-15 cells were maintained in medium B supplemented with 5% FBS. SRD-13A cells were maintained in medium B with 5% FBS, 5 μg ml^−1 cholesterol, 1 mM sodium mevalonate, 10 μM sodium oleate. No cell lines used in this study were found in the database of commonly misidentified cell lines that is maintained by ICLAC and NCBI Biosample. The cell lines have not been authenticated recently. No test for mycoplasma contamination was performed.
Cells were harvested and homogenized in the RIPA buffer (50 mM Tris-HCl, pH 8.0, 150 mM NaCl, 2 mM MgCl2, 1.5% NP-40, 0.1% SDS, and 0.5% sodium deoxycholate) supplemented with protease cocktail inhibitor, 10 μM MG-132, 10 μg ml^−1 leupeptin and 1 mM phenylmethylsulfonyl fluoride. The protein concentrations of lysates were determined using BCA method (Beyotime). Samples were mixed with the membrane protein solubilization buffer (62.5 mM Tris-HCl, pH 6.8, 15% SDS, 8 M urea, 10% glycerol, and 100 mM DTT) plus the 4× loading buffer (150 mM Tris-HCl, pH 6.8, 12% SDS, 30% glycerol, 6% 2-mercaptoethanol, and 0.02% bromophenol blue) and incubated for 30 min at 37 °C. Proteins were resolved by SDS-PAGE and transferred to nitrocellulose membranes (GE Healthcare). Immnoblots were blocked with 5% non-fat milk in TBS containing 0.075% Tween-20 (TBST) and probed with indicated antibodies overnight at 4 °C. After washing in TBST for five times, blots were incubated with HRP-conjugated secondary antibodies for 2 h at room temperature. Immunoreactivity was developed with Clarity Western ECL chemiluminescent substrates (170–5061, Bio-Rad). Western blot images were captured by Amersham Imager 600 (GE Healthcare), and integrated optical intensities of each band were quantified by Image-Pro Plus 6 software (Media Cybernetics). Uncropped blots are shown in Supplementary Figs. 9–13.

SMILES: C=CCC(O)(CC=C)CCCC(C)C1CCC2C3C(O)C=C4C(C)(C)C(O)CCC4(C)C3CCC12C (stereo not drawn) [Cmpd 81]
- ubiquitination of endogenous HMGCR (HMGCR [1]; CHO-7, with 10 μM MG-132, 3 h): dose-dependent increase
- ubiquitination of transfected HMGCR (HMGCR [1]; cells co-expressing wild-type HMGCR and Insig-1): markedly increase

SMILES: CC[C@H](C)C(=O)O[C@H]1C[C@@H](C)C=C2C=C[C@H](C)[C@H](CC[C@@H]3C[C@@H](O)CC(=O)O3)[C@H]21 [Lovastatin, lovastatin]
- increase of HMGCR protein (HMGCR [2]; SRD-13A cells, lovastatin 16 h): ≤ 8 fold
- HMGCR protein level, mean (HMGCR [2]; lovastatin 0.001 uM): 0.9418
- HMGCR protein level, mean (HMGCR [2]; lovastatin 0.003 uM): 1.178
- HMGCR protein level, mean (HMGCR [2]; lovastatin 0.01 uM): 2.758
- HMGCR protein level, mean (HMGCR [2]; lovastatin 0.03 uM): 4.962
- HMGCR protein level, mean (HMGCR [2]; lovastatin 0.1 uM): 7.087
- HMGCR protein level, mean (HMGCR [2]; lovastatin 0.3 uM): 7.139
- HMGCR protein level, mean (HMGCR [2]; lovastatin 1 uM): 8.174
- HMGCR protein level, mean (HMGCR [2]; lovastatin 3 uM): 8.262
- HMGCR protein level, mean (HMGCR [2]; lovastatin 10 uM): 7.249
